Assay results: patent US20240376084A1, “INHIBITORS OF ALPHA-HEMOLYSIN OF STAPHYLOCOCCUS AUREUS” (Helmholtz-Zentrum Fur Infektionsforschung GmbH, priority 2021, published 2024)

Legend:
[1] = target: hemolysin alpha from Staphylococcus aureus (Staphylococcus aureus, UniProt P09616); assay: cell-based
[2] = target: S. aureus Alpha hemolysin (Staphylococcus aureus, UniProt P09616); assay: cell-based
Sequence of S. aureus Alpha hemolysin (P09616 27-319 limits assumed): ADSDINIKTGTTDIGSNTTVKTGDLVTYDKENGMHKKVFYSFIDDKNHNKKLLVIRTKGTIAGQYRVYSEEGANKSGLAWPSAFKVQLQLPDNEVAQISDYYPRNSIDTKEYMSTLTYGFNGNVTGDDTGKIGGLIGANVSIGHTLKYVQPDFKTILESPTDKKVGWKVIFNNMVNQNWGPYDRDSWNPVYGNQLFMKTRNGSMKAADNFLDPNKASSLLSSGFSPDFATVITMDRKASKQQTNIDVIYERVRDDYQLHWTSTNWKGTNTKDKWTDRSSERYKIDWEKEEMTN

Sequence of hemolysin alpha from Staphylococcus aureus (P09616 27-319 limits assumed): as above

Cc1cc2[nH]c(=O)c(=O)[nH]c2cc1S(=O)(=O)Nc1ccc(-c2cc(CO)ccc2F)c(Cl)c1 [Compound 282, N-[3-chloro-4-[2-fluoro-5-(hydroxymethyl)phenyl]phenyl]-7-methyl-2,3-dioxo-1,4-dihydroquinoxaline-6-sulfonamide]
EC50 [1]: 30 to 100 nM
EC50 ([2]; A549-LDH Assay activity): 100 to 1000 nM

CCOC(=O)c1ccccc1-c1ccc(NS(=O)(=O)c2cc3[nH]c(=O)c(=O)[nH]c3cc2C)cc1 [Compound 120, ethyl 4′-((7-methyl-2,3-dioxo-1,2,3,4-tetrahydroquinoxaline)-6-sulfonamido)-[1,1′-biphenyl]-2-carboxylate]
IC50 [1]: 100 to 1000 nM
EC50 ([2]; A549-LDH Assay activity): 1000 to 6000 nM

Cc1cc2[nH]c(=O)c(=O)[nH]c2cc1S(=O)(=O)Nc1ccc(-c2ccccc2Cl)c(Cl)c1 [Compound 77, N-(2,2′-dichloro-[1,1′-biphenyl]-4-yl)-7-methyl-2,3-dioxo-1,2,3,4-tetrahydroquinoxaline-6-sulfonamide]
IC50 [1]: 100 to 1000 nM
EC50 ([2]; A549-LDH Assay activity): 100 to 1000 nM

Cc1cc2[nH]c(=O)c(=O)[nH]c2cc1S(=O)(=O)Nc1ccc(-c2cccc(OC(F)(F)F)c2)c(Cl)c1 [Compound 339, N-[3-chloro-4-[3-(trifluoromethoxy)phenyl]phenyl]-7-methyl-2,3-dioxo-1,4-dihydroquinoxaline-6-sulfonamide]
EC50 [1]: 30 to 100 nM
EC50 ([2]; A549-LDH Assay activity): 100 to 1000 nM

Cc1cccc(-c2c(C)cc(NS(=O)(=O)c3cc4[nH]c(=O)c(=O)[nH]c4cc3C)cc2C)c1 [Compound 175, 7-methyl-2,3-dioxo-N-(2,3′,6-trimethyl-[1,1′-biphenyl]-4-yl)-1,2,3,4-tetrahydroquinoxaline-6-sulfonamide]
IC50 [1]: 100 to 1000 nM
EC50 ([2]; A549-LDH Assay activity): 100 to 1000 nM

Cc1cc2[nH]c(=O)c(=O)[nH]c2cc1S(=O)(=O)Nc1ccc(-c2cccc(Cl)c2)c(Cl)c1 [Compound 26, N-(2,3′-dichloro-[1,1′-biphenyl]-4-yl)-7-methyl-2,3-dioxo-1,2,3,4-tetrahydroquinoxaline-6-sulfonamide]
IC50 [1]: < 30 nM
EC50 ([2]; A549-LDH Assay activity): 30 to 100 nM

Cc1cc2[nH]c(=O)c(=O)[nH]c2cc1S(=O)(=O)Nc1ccc(C2=CCCCC2)c(Br)c1 [Compound 299, N-[3-bromo-4-(cyclohexen-1-yl)phenyl]-7-methyl-2,3-dioxo-1,4-dihydroquinoxaline-6-sulfonamide]
EC50 [1]: 30 to 100 nM
EC50 ([2]; A549-LDH Assay activity): 30 to 100 nM

Cc1cc(NS(=O)(=O)c2cc3[nH]c(=O)c(=O)[nH]c3cc2Cl)ccc1-c1ccccc1 [Compound 45, 7-chloro-N-(2-methyl-[1,1′-biphenyl]-4-yl)-2,3-dioxo-1,2,3,4-tetrahydroquinoxaline-6-sulfonamide]
IC50 [1]: 30 to 100 nM
EC50 ([2]; A549-LDH Assay activity): 30 to 100 nM

Cc1cc(NS(=O)(=O)c2cc3[nH]c(=O)c(=O)[nH]c3cc2C)ccc1Br [drawing 471 (R^2 = CH3)]
EC50 [1]: 267 nM
EC50 ([2]; LDH Assay EC50): 91 nM

COc1cc2[nH]c(=O)c(=O)[nH]c2cc1S(=O)(=O)Nc1ccc(Cl)cc1 [Compound 380, N-(4-chlorophenyl)-7-methoxy-2,3-dioxo-1,4-dihydroquinoxaline-6-sulfonamide]
EC50 [1]: 1000 to 3500 nM
EC50 ([2]; A549-LDH Assay activity): 100 to 1000 nM

Cc1cc2[nH]c(=O)c(=O)[nH]c2cc1S(=O)(=O)Nc1ccc(Cc2ccccc2)c(Cl)c1 [Compound 321, N-(4-benzyl-3-chloro-phenyl)-7-methyl-2,3-dioxo-1,4-dihydroquinoxaline-6-sulfonamide]
EC50 [1]: 100 to 1000 nM
EC50 ([2]; A549-LDH Assay activity): 100 to 1000 nM

Cc1ccc(-c2c(C)cc(NS(=O)(=O)c3cc4[nH]c(=O)c(=O)[nH]c4cc3C)cc2C)s1 [Compound 70, N-(3,5-dimethyl-4-(5-methylthiophen-2-yl)phenyl)-7-methyl-2,3-dioxo-1,2,3,4-tetrahydroquinoxaline-6-sulfonamide]
IC50 [1]: 30 to 100 nM
EC50 ([2]; A549-LDH Assay activity): 100 to 1000 nM

Cc1cc2[nH]c(=O)c(=O)[nH]c2cc1S(=O)(=O)Nc1ccc(-c2sccc2C)c(Cl)c1 [Compound 62, N-(3-chloro-4-(3-methylthiophen-2-yl)phenyl)-7-methyl-2,3-dioxo-1,2,3,4-tetrahydroquinoxaline-6-sulfonamide]
IC50 [1]: 30 to 100 nM
EC50 ([2]; A549-LDH Assay activity): 100 to 1000 nM

Cc1ccccc1-c1c(C)cc(NS(=O)(=O)c2cc3[nH]c(=O)c(=O)[nH]c3cc2C)cc1C [Compound 125, 7-methyl-2,3-dioxo-N-(2,2′,6-trimethyl-[1,1′-biphenyl]-4-yl)-1,2,3,4-tetrahydroquinoxaline-6-sulfonamide]
IC50 [1]: 100 to 1000 nM
EC50 ([2]; A549-LDH Assay activity): 1000 to 6000 nM

COc1cc(OC)cc(-c2ccc(NS(=O)(=O)c3cc4[nH]c(=O)c(=O)[nH]c4cc3C)cc2Cl)c1 [Compound 258, N-[3-chloro-4-(3,5-dimethoxyphenyl)phenyl]-7-methyl-2,3-dioxo-1,4-dihydroquinoxaline-6-sulfonamide]
EC50 [1]: 100 to 1000 nM
EC50 ([2]; A549-LDH Assay activity): 100 to 1000 nM

Cc1cc2[nH]c(=O)c(=O)[nH]c2cc1S(=O)(=O)Nc1ccc(-c2ccc3[nH]ccc3c2)c(Cl)c1 [Compound 270, N-[3-chloro-4-(1H-indol-5-yl)phenyl]-7-methyl-2,3-dioxo-1,4-dihydroquinoxaline-6-sulfonamide]
EC50 [1]: 100 to 1000 nM
EC50 ([2]; A549-LDH Assay activity): 30 to 100 nM

Cc1cc2[nH]c(=O)c(=O)[nH]c2cc1S(=O)(=O)Nc1ccc(-c2cccc(CO)c2)c(Cl)c1 [Compound 333, N-[3-chloro-4-[3-(hydroxymethyl)phenyl]phenyl]-7-methyl-2,3-dioxo-1,4-dihydroquinoxaline-6-sulfonamide]
EC50 [1]: 30 to 100 nM
EC50 ([2]; A549-LDH Assay activity): 100 to 1000 nM

Cc1cc2[nH]c(=O)c(=O)[nH]c2cc1S(=O)(=O)Nc1ccc(-c2ccc(F)c(C#N)c2)c(Cl)c1 [Compound 393, N-[3-chloro-4-(3-cyano-4-fluoro-phenyl)phenyl]-7-methyl-2,3-dioxo-1,4-dihydroquinoxaline-6-sulfonamide]
EC50 [1]: 30 to 100 nM
EC50 ([2]; A549-LDH Assay activity): 100 to 1000 nM

Cc1cc2[nH]c(=O)c(=O)[nH]c2cc1S(=O)(=O)Nc1ccc(Br)cc1 [Compound 97, N-(4-bromophenyl)-7-methyl-2,3-dioxo-1,2,3,4-tetrahydroquinoxaline-6-sulfonamide]
IC50 [1]: 100 to 1000 nM
EC50 ([2]; A549-LDH Assay activity): 30 to 100 nM

CC(C)=Cc1ccc(NS(=O)(=O)c2cc3[nH]c(=O)c(=O)[nH]c3cc2C)cc1Cl [Compound 296, N-[3-chloro-4-(2-methylprop-1-enyl)phenyl]-7-methyl-2,3-dioxo-1,4-dihydroquinoxaline-6-sulfonamide]
EC50 [1]: 30 to 100 nM
EC50 ([2]; A549-LDH Assay activity): 30 to 100 nM

O=c1[nH]c2cc(Cl)c(S(=O)(=O)Nc3ccc(-c4ccoc4)c(Cl)c3)cc2[nH]c1=O [Compound 44, 7-chloro-N-(3-chloro-4-(furan-3-yl)phenyl)-2,3-dioxo-1,2,3,4-tetrahydroquinoxaline-6-sulfonamide]
IC50 [1]: 30 to 100 nM
EC50 ([2]; A549-LDH Assay activity): 100 to 1000 nM

Cc1cc2[nH]c(=O)c(=O)[nH]c2cc1S(=O)(=O)Nc1ccc(N2CCOC[C@H]2C)c(Cl)c1 [Compound 243, (R)-N-(3-chloro-4-(3-methylmorpholino)phenyl)-7-methyl-2,3-dioxo-1,2,3,4-tetrahydroquinoxaline-6-sulfonamide]
EC50 [1]: 1000 to 3500 nM
EC50 ([2]; A549-LDH Assay activity): 100 to 1000 nM

Cc1cc2[nH]c(=O)c(=O)[nH]c2cc1S(=O)(=O)Nc1ccc(-c2ccc(C#N)cc2)c(C(F)(F)F)c1 [Compound 348, N-[4-(4-cyanophenyl)-3-(trifluoromethyl)phenyl]-7-methyl-2,3-dioxo-1,4-dihydroquinoxaline-6-sulfonamide]
EC50 [1]: < 30 nM
EC50 ([2]; A549-LDH Assay activity): 100 to 1000 nM

Cc1cc2[nH]c(=O)c(=O)[nH]c2cc1S(=O)(=O)Nc1ccc(-n2ccnc2)cc1 [Compound 292, N-(4-imidazol-1-ylphenyl)-7-methyl-2,3-dioxo-1,4-dihydroquinoxaline-6-sulfonamide]
EC50 [1]: 1000 to 3500 nM
EC50 ([2]; A549-LDH Assay activity): 1000 to 6000 nM

Cc1cc2[nH]c(=O)c(=O)[nH]c2cc1S(=O)(=O)Nc1ccc(-c2ccc(F)c(C(N)=O)c2)c(Cl)c1 [Compound 389, 5-[2-chloro-4-[(7-methyl-2,3-dioxo-1,4-dihydroquinoxalin-6-yl)sulfonylamino]phenyl]-2-fluoro-benzamide]
EC50 [1]: < 30 nM
EC50 ([2]; A549-LDH Assay activity): 30 to 100 nM

COc1cc2[nH]c(=O)c(=O)[nH]c2cc1S(=O)(=O)Nc1ccc(OC(F)F)cc1 [Compound 391, N-[4-(difluoromethoxy)phenyl]-7-methoxy-2,3-dioxo-1,4-dihydroquinoxaline-6-sulfonamide]
EC50 [1]: 1000 to 3500 nM
EC50 ([2]; A549-LDH Assay activity): 100 to 1000 nM

Cc1cc2[nH]c(=O)c(=O)[nH]c2cc1S(=O)(=O)Nc1ccc(C(F)(F)F)cc1 [Compound 50, 7-methyl-2,3-dioxo-N-(4-(trifluoromethyl)phenyl)-1,2,3,4-tetrahydroquinoxaline-6-sulfonamide]
IC50 [1]: 30 to 100 nM
EC50 ([2]; A549-LDH Assay activity): 30 to 100 nM

Cc1cn2ccc(-c3ccc(NS(=O)(=O)c4cc5[nH]c(=O)c(=O)[nH]c5cc4C)cc3Cl)cc2n1 [Compound 338, N-[3-chloro-4-(2-methylimidazo[1,2-a]pyridin-7-yl)phenyl]-7-methyl-2,3-dioxo-1,4-dihydroquinoxaline-6-sulfonamide]
EC50 [1]: < 30 nM
EC50 ([2]; A549-LDH Assay activity): 30 to 100 nM

Cc1cc2[nH]c(=O)c(=O)[nH]c2cc1S(=O)(=O)Nc1ccc2c(c1)CCCC2 [Compound 54, 7-methyl-2,3-dioxo-N-(5,6,7,8-tetrahydronaphthalen-2-yl)-1,2,3,4-tetrahydroquinoxaline-6-sulfonamide]
IC50 [1]: 30 to 100 nM
EC50 ([2]; A549-LDH Assay activity): 100 to 1000 nM

Cc1cc2[nH]c(=O)c(=O)[nH]c2cc1S(=O)(=O)Nc1ccc(-c2ccc3cc[nH]c3c2)c(C(F)(F)F)c1 [Compound 369, N-[4-(1H-indol-6-yl)-3-(trifluoromethyl)phenyl]-7-methyl-2,3-dioxo-1,4-dihydroquinoxaline-6-sulfonamide]
EC50 [1]: < 30 nM
EC50 ([2]; A549-LDH Assay activity): 30 to 100 nM

Cc1cc2[nH]c(=O)c(=O)[nH]c2cc1S(=O)(=O)Nc1ccc(-c2ccc(F)cc2)c(Cl)c1 [Compound 3, N-(2-chloro-4′-fluoro-[1,1′-biphenyl]-4-yl)-7-methyl-2,3-dioxo-1,2,3,4-tetrahydroquinoxaline-6-sulfonamide]
IC50 [1]: < 30 nM
EC50 ([2]; A549-LDH Assay activity): 30 to 100 nM

Cc1cc2[nH]c(=O)c(=O)[nH]c2cc1S(=O)(=O)Nc1ccc(-c2ccc(C#N)cc2)c(Cl)c1 [Compound 376, N-[3-chloro-4-(4-cyanophenyl)phenyl]-7-methyl-2,3-dioxo-1,4-dihydroquinoxaline-6-sulfonamide]
EC50 [1]: < 30 nM
EC50 ([2]; A549-LDH Assay activity): 30 to 100 nM
